Data taken from patent EP2532368A1, “"Composition for oral delivery of biologically-active substances"” (Peluso, Gianfranco, priority 2011, dated 2012).

Tested on: DSS-induced colitis
Experiment: DSS-induced colitis in mice
Type: in vivo, C57BL/6 mice
Settings: 3% DSS in water, daily gavage for 7 days

Q: Which results are given for Nc1ccc(O)c(C(=O)O)c1 [5-ASA, 5-Aminosalicylic acid]?
A: weight loss: does not reduce the severity of weight loss; Intestinal myeloperoxidase (MPO) activity (colon): has no effect on the basal MPO levels
